{
  "source": "patent US10519211B2",
  "about": "“Compounds as peptidic GLP1/glucagon/GIP receptor agonists” (SANOFI, priority 2016, dated 2019)",
  "type_in_all_cases": "physicochemical",
  "key": {"[1]": {"assay": "Chemical stability assessment (UPLC-UV, relative purity loss)", "conditions": "1 mg/ml, 25 mM acetate buffer pH 4.5 with m-cresol (buffer system A)", "in_short": "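Peptide at 1 mg/mL (purity-corrected) in 25 mM acetate pH 4.5 with methionine, m-cresol and glycerol, sterile-filtered, stored 28 days at 40° C. Purity measured by UPLC-UV as peptide peak area fraction at start and after storage; value is relative percent purity loss.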"}, "[2]": {"assay": "Dynamic light scattering (DLS), hydrodynamic radius as surrogate for interaction parameter kD", "in_short": "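Rh and diffusion constant measured in triplicate at 1 and 5 mg/ml peptide in 25 mM acetate pH4.5 with methionine, m-cresol and glycerol, at 25°C, 830 nm, 158°. Rh5<Rh1 or D5>D1 taken as kD>0, indicating repulsive interactions.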"}, "[3]": {"assay": "Thioflavin T (ThT) assay for physical stability (fibrillation)", "conditions": "3 mg/ml, 100 mM acetate pH 4.5 with m-cresol, shaking at 37° C.", "in_short": "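Peptide at 3 mg/ml with 100 μM ThT in 100 mM acetate pH 4.5 with m-cresol, stressed at 37° C by cycles of 10 s shaking at 960 rpm and 50 s rest. Fluorescence read every 20 minutes, eight replicates; lag time in hours.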"}},
  "note": "Numbered stars: 1 amine (or outer) side, 2 acyl side, 3 side chain; on linkers, the order of the positions; unused ones are H or OH. Square brackets hold non-standard residues; d marks the D form. Side chains are listed from the residue outwards. Peptide text beside a SMILES is read from it. * marks the point of attachment. γGlu = O=C(O)[C@H](CCC(=O)[*:2])N[*:1]; Palmitoyl = CCCCCCCCCCCCCCCC(=O)*; Aib = CC(C)(N)C(=O)O",
  "data": [
    {"smiles": "CCCCCCCCCCCCCCCC(=O)N[C@@H](CCC(=O)N[C@@H](CCC(=O)NCCCC[C@H](NC(=O)[C@H](CC(C)C)NC(=O)[C@H](CCCCN)NC(=O)[C@H](CO)NC(=O)[C@H](CC(C)C)NC(=O)[C@H](CC(=O)O)NC(=O)[C@H](CO)NC(=O)[C@@H](NC(=O)[C@H](Cc1ccccc1)NC(=O)[C@@H](NC(=O)CNC(=O)[C@H](CCC(N)=O)NC(=O)C(C)(C)NC(=O)[C@@H](N)Cc1c[nH]cn1)[C@@H](C)O)[C@@H](C)O)C(=O)N[C@@H](CCC(=O)O)C(=O)N[C@@H](CCCCN)C(=O)N[C@@H](CCC(N)=O)C(=O)N[C@@H](CCCNC(=N)N)C(=O)N[C@@H](CCC(N)=O)C(=O)NC(C)(C)C(=O)N[C@@H](CCC(=O)O)C(=O)N[C@@H](Cc1ccccc1)C(=O)N[C@H](C(=O)N[C@@H](CCC(=O)O)C(=O)N[C@@H](Cc1c[nH]c2ccccc12)C(=O)N[C@@H](CC(C)C)C(=O)N[C@@H](CCCCN)C(=O)N[C@@H](C)C(=O)N[C@H](C)C(=O)NCC(=O)N1CCC[C@H]1C(=O)N1CCC[C@H]1C(=O)N[C@@H](CO)C(=O)NC(C)(C)C(=O)N[C@@H](CCCCN)C(=O)N1CCC[C@H]1C(=O)N1CCC[C@H]1C(=O)N1CCC[C@H]1C(=O)N[C@@H](CCCCN)C(N)=O)[C@@H](C)CC)C(=O)O)C(=O)O", "note": "[SEQ ID NO: 7, H-Aib-Q-G-T-F-T-S-D-L-S-K-L-K[gGlu-gGlu-Palm]-E-K-Q-R-Q-Aib-E-F-I-E-W-L-K-A-dAla-G-P-P-S-Aib-K-P-P-P-K-NH2] (H-H[Aib]QGTFTSDLSKLK([γGlu-γGlu-Palmitoyl])EKQRQ[Aib]EFIEWLKA[dA]GPPS[Aib]KPPPK-NH2)", "values": [
      {"measurement": "Chemical stability [relative purity loss 28 days 40° C.] (%) at pH 4.5", "setting": "[1]", "result": 6.8, "unit": "%"},
      {"measurement": "Delta Rh [nm] = Rh5 − Rh1", "setting": "[2]; DLS buffer system A pH 4.5", "result": "−0.3", "unit": "nm"},
      {"measurement": "Rh1 [nm] c= 1 mg/ml", "setting": "[2]; hydrodynamic radius, 1 mg/ml, DLS buffer system A pH 4.5, DLS method C, 25° C.", "result": 2.8, "unit": "nm"},
      {"measurement": "Rh5 [nm] c = 5 mg/ml", "setting": "[2]; hydrodynamic radius, 5 mg/ml, DLS buffer system A pH 4.5, DLS method C, 25° C.", "result": 2.4, "unit": "nm"},
      {"measurement": "Lag time before increase", "setting": "[3]", "result": ">45", "unit": "h"}
    ]}
  ]
}
